Calls of active or inactive are those of the source.
Molecular target: Luciferin 4-monooxygenase (Photinus pyralis, UniProt P08659)
Test: firefly luciferase enzyme inhibitors, dose response, biochemical, luminescence (AID 1891)
Details: not given

Chain of Luciferin 4-monooxygenase (P08659 whole entry): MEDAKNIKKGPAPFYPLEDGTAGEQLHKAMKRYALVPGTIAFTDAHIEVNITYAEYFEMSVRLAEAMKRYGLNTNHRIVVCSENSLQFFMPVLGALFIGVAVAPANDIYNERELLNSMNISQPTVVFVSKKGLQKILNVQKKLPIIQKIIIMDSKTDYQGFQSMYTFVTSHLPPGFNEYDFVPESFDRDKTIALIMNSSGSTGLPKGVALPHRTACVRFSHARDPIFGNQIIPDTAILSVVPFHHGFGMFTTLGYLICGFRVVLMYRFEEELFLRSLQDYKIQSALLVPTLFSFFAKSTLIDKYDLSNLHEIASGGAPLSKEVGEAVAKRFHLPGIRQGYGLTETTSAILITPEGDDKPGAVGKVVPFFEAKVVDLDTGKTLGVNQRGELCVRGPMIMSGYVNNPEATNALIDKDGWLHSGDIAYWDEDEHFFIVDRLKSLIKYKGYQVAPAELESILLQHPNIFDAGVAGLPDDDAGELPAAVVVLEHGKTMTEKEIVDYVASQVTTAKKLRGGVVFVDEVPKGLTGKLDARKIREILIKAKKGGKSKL

SMILES	EC50
CCCc1noc2c1C(c1ccoc1)C(C#N)=C(N)N2 (centres undefined)	> 112 µM (not active)
O=C(Nc1ccccc1C(=O)N/N=C/c1ccco1)c1ccc(F)cc1	0.295 µM (active)
CC/C(=N\NC(=O)Nc1ccccc1)c1ccccc1	> 112 µM (not active)
CCC1CCCN1Cn1cnc2c3cc(Cl)ccc3nc-2c1O (centres undefined)	> 112 µM (not active)
COCCCN(C(=O)Cc1ccc(Cl)c(Cl)c1)c1c(N)n(Cc2ccccc2)c(=O)[nH]c1=O	> 112 µM (not active)
O=C(CN(c1cccc([N+](=O)[O-])c1)S(=O)(=O)c1ccccc1)NCc1ccccc1	> 112 µM (not active)
CCOc1ccc(CCNC(=O)c2oc3c(c2C)-c2n[nH]cc2CC3)cc1OCC	> 112 µM (not active)
Cc1nonc1C(=O)N/N=C/c1cccc(O)c1	13.5 µM (active)

Test system: not listed separately
Test: Luminescence Cell-Based Dose Confirmation HTS to Identify Inhibitors of Platelet Dense Granule Release. [Related pubchem assays: 1663 (Primary HTS), 1678 (Summary of Project)]
Assay type: functional
Details: not given

SMILES	EC50
CCCc1noc2c1C(c1ccoc1)C(C#N)=C(N)N2 (centres undefined)	> 112 µM (not active)
O=C(Nc1ccccc1C(=O)N/N=C/c1ccco1)c1ccc(F)cc1	10.4 µM (active)
CC/C(=N\NC(=O)Nc1ccccc1)c1ccccc1	> 112 µM (not active)
CCC1CCCN1Cn1cnc2c3cc(Cl)ccc3nc-2c1O (centres undefined)	48.3 µM (active)
COCCCN(C(=O)Cc1ccc(Cl)c(Cl)c1)c1c(N)n(Cc2ccccc2)c(=O)[nH]c1=O	> 112 µM (not active)
O=C(CN(c1cccc([N+](=O)[O-])c1)S(=O)(=O)c1ccccc1)NCc1ccccc1	46.7 µM (active)
CCOc1ccc(CCNC(=O)c2oc3c(c2C)-c2n[nH]cc2CC3)cc1OCC	> 112 µM (not active)
Cc1nonc1C(=O)N/N=C/c1cccc(O)c1	4.56 µM (active)

Test system: not listed separately
Test: growth suppression of PTEN-null colon cells, dose response, cell-based, HCT116 PTEN knockout (AID 1047);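 also: HCT116 colon tumor cells with PTEN knocked out; cells exposed to compound for 60 hours before readout; potency for loss of cell viability measured by luminescence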
Assay type: functional
Details: not given

SMILES	EC50
CC(C)CCCCCCN=C(S)Nc1ccc(S(=O)(=O)N2CCOCC2)cc1	77 µM (active)

Molecular target: T1, Coagulation factor XII (Homo sapiens, UniProt P00748);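 also: activated factor XIIa alpha cleaving a fluorogenic AMC peptide substrate; inhibitor potency from loss of enzyme activity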
T1 sequence (P00748 whole entry): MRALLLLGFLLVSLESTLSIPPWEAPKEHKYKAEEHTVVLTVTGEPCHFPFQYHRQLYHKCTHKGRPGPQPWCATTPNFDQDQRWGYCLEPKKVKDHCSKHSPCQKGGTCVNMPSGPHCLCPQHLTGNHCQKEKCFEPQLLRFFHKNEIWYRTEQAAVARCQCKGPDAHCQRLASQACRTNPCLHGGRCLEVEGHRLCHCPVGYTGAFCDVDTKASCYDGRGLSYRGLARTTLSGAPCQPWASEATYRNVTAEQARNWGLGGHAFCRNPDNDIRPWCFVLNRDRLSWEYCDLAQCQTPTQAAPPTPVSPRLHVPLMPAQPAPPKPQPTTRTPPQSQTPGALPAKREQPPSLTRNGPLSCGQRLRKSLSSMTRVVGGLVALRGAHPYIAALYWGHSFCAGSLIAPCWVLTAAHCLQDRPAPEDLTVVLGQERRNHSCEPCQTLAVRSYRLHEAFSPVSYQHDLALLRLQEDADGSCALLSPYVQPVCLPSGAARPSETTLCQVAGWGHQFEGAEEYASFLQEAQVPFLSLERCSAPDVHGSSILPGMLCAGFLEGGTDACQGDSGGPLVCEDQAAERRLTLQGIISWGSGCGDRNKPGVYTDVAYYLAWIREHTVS
Test: not given
Assay type: functional
Details: not given

SMILES	IC50
Cc1csc(NC(=O)C(CC(C)C)NS(=O)(=O)c2ccc3c(c2)oc(=O)n3C)n1 (centres undefined)	> 50 µM (inactive)
O=C(CS(=O)(=O)c1cn(Cc2ccc(Cl)cc2)c2ccccc12)N1CCOCC1	> 50 µM (inactive)
Cc1nc(O)nc(O)c1/C=N/NC(=O)[C@@H](N)CC(C)C	> 50 µM (inactive)
Cc1ccc(C(=O)NCCNc2ccc(Cl)cc2[N+](=O)[O-])o1	> 50 µM (inactive)
NC(=O)c1c(N)sc2c1CCC2	> 50 µM (inactive)
COc1ccc2c(c1)CCc1sc(NC(=O)c3ccc(C)cc3)nc1-2	> 50 µM (inactive)

Molecular target: T2, Heat shock factor protein 1 (Mus musculus, UniProt P38532)
T2 sequence (P38532 whole entry): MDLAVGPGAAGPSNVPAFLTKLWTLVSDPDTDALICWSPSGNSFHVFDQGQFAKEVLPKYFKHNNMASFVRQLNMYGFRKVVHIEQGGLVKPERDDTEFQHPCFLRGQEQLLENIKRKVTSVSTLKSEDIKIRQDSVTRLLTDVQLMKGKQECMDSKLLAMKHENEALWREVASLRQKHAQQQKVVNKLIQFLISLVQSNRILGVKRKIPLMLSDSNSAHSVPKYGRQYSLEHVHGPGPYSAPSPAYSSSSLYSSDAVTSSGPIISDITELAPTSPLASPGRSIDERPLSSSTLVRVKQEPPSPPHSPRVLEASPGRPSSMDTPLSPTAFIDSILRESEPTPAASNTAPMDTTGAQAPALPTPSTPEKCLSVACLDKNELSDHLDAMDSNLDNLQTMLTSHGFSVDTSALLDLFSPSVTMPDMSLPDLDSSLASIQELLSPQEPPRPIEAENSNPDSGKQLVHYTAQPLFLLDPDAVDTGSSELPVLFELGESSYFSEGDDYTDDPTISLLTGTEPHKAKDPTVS
Test: HSF1 potentiators in luciferase reporter cells, confirmation, cell-based, NIH3T3, luminescence, dose retest (AID 435004);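 also: stress induced by proteasome inhibitor MG132 added 30 min after compound; luciferase reporter driven by HSF1 response element in NIH3T3 cells; actives raise luminescence as potentiators of the MG132 stress response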
Assay type: functional
Details: not given

SMILES	EC50
Cc1cc(C)c2cc(C(=O)N(C)C3CCN(C)CC3)[nH]c2c1	> 260 µM (inactive)
CCN(C(=O)COC(=O)c1c2c(nc3ccccc13)/C(=C/c1ccccc1)CC(C)C2)C1CCS(=O)(=O)C1 (centres undefined)	14.3 µM (active)
O=C(CF)NC(NC(S)=Nc1ccccc1O)C(Cl)(Cl)Cl (centres undefined)	> 260 µM (inactive)
Cc1nc(-c2ccc(Cl)cc2)sc1C(=O)CBr	70.2 µM (active)
O=C(CSC1=NCCN1)Nc1cccc(C(F)(F)F)c1	> 260 µM (inactive)
CCOC(=O)CC(NC(=O)C1c2ccccc2Oc2ccccc21)c1ccccc1Cl (centres undefined)	> 260 µM (inactive)
CSc1nc(S(=O)(=O)c2ccc(C)cc2)c(Cl)s1	> 260 µM (inactive)
Cn1nnnc1SCCNC/C=C/c1ccccc1	> 260 µM (inactive)

Molecular target: Cytochrome P450 2C19 (Homo sapiens, UniProt P33261)
Sequence (P33261 whole entry): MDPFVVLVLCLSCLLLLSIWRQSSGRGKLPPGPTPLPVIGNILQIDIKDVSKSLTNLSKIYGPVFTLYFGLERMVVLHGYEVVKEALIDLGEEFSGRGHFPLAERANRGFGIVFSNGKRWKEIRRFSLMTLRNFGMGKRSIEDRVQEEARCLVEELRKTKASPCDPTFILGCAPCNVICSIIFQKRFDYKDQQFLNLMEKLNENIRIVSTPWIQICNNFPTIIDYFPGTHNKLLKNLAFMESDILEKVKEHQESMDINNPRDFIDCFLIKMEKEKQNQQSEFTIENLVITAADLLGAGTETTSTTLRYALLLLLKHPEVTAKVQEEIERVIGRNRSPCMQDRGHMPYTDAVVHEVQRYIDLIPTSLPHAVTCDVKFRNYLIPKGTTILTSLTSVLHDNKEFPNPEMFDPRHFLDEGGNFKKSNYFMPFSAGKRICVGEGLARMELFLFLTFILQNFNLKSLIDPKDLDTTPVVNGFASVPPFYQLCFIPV
Test: Cytochrome panel assay with activity outcomes. Panel member name: p450-cyp2c19 Compounds with AC50 equal or less than 10 uM are considered active
Assay type: functional
Details: read-out: AC50

SMILES	AC50
COc1ccccc1NC(=O)c1ccc(-n2cccn2)nc1	25.1 µM (inconclusive)
Cc1cc(C(=O)CC#N)c(C)n1CC(F)(F)F	22.4 µM (inconclusive)
CN(C)c1ccc(-c2nc(N(C)C)c3ccccc3n2)cc1	39.8 µM (inconclusive)

Molecular target: T3, Replicative DNA helicase DnaB (Mycobacterium tuberculosis, UniProt P9WMR3)
T3 sequence (P9WMR3 whole entry): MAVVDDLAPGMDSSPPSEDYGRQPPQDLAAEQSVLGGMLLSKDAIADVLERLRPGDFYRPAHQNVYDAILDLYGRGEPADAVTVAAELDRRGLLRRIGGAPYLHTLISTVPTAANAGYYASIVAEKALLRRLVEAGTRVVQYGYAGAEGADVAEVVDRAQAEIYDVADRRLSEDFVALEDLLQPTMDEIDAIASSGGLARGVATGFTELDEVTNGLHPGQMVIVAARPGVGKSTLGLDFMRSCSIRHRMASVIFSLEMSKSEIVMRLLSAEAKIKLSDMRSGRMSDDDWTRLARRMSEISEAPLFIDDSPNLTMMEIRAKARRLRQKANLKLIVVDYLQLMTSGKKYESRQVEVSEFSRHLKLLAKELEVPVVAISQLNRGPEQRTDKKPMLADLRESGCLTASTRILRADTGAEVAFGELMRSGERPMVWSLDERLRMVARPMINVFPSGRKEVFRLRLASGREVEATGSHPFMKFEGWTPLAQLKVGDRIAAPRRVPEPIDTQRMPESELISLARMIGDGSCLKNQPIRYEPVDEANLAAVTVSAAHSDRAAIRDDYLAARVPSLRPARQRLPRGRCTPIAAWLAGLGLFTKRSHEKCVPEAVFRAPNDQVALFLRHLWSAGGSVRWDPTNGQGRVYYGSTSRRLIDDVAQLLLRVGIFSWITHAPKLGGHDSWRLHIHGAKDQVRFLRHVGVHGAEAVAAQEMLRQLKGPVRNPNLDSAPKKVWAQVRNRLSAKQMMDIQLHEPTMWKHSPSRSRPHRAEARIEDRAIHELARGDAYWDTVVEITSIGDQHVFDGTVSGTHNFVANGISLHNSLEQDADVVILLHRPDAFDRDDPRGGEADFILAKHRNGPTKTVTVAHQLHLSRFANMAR
Test: DnaB intein splicing inhibitors, dose response, biochemical, cell-free fluorescence (AID 449749)
Assay type: functional
Details: not given

SMILES	AC50
CCCc1noc2c1C(c1ccoc1)C(C#N)=C(N)N2 (centres undefined)	157 µM (active)

Molecular target: T4, Protein RecA (Mycobacterium tuberculosis, UniProt P9WHJ3)
T4 sequence (P9WHJ3 whole entry): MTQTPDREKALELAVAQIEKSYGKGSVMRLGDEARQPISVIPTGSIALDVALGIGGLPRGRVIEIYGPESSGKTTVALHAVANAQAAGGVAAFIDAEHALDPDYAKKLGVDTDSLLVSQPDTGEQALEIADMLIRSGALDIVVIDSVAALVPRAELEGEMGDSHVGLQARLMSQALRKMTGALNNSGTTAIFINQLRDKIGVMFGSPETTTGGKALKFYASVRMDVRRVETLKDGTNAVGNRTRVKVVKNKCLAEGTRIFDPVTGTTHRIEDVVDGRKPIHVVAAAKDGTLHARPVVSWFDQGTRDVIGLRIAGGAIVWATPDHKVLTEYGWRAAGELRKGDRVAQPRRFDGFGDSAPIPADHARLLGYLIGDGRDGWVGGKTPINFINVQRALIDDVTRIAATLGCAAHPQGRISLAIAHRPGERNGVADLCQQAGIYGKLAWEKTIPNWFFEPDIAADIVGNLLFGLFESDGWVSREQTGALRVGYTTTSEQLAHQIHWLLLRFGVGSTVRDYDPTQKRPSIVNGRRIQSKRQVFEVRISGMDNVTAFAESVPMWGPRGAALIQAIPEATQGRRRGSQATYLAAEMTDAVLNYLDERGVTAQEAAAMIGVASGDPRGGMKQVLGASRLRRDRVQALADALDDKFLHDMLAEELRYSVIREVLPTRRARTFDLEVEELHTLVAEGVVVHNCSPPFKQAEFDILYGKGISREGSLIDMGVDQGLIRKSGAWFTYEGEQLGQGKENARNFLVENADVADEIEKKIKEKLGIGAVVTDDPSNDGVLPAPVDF
Test: Fluorescence Cell-Free Homogeneous Dose Retest to Identify Inhibitors of RecA-Intein Splicing Activity. [Related pubchem assays (depositor defined):AID2097, AID2223, AID489010, AID492950]
Assay type: functional
Details: not given

SMILES	EC50
CCCc1noc2c1C(c1ccoc1)C(C#N)=C(N)N2 (centres undefined)	1.06 µM (active)

Test system: INS1
Test: beta cell apoptosis inhibitors, cytokine rescue, dose response, luminescence, retest (AID 449756);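 also: cell death triggered by IL-1 beta plus TNF-alpha plus IFN-gamma mixture; protective hits raise ATP signal compared with cytokine alone wells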
Assay type: functional, cell-based
Details: Rattus norvegicus

SMILES	AC50
CC(C)CCCCCCN=C(S)Nc1ccc(S(=O)(=O)N2CCOCC2)cc1	7.7 µM (active)

Molecular target: Paired box protein Pax-8 (Homo sapiens, UniProt Q06710)
Sequence (Q06710 whole entry): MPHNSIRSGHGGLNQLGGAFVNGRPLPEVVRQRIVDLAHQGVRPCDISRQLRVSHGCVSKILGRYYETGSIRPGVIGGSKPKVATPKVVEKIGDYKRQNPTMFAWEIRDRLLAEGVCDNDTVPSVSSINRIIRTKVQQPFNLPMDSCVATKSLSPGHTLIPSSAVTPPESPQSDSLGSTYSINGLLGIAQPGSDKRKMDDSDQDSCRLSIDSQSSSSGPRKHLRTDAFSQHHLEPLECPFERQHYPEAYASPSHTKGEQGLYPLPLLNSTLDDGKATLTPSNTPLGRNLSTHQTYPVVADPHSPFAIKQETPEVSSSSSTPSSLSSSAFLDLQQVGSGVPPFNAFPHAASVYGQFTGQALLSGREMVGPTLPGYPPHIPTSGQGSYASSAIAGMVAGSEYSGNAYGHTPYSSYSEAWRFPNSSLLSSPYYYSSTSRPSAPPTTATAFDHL
Test: inhibitors of PAX8-driven TPO luciferase reporter, dose response, RMG-I cells, cherry-pick (AID 687027);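 also: luciferase reporter driven by Pax8 target thyroperoxidase promoter measured by SteadyGlo luminescence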
Assay type: functional, cell-based
Details: not given

SMILES	AC50
C[C@H]1CCCCO[C@H](CN(C)C(=O)Nc2ccc(C(F)(F)F)cc2)[C@@H](C)CN([C@@H](C)CO)C(=O)c2cc(NC(=O)c3ccncc3)ccc2O1	17.1 µM (active)

Molecular target: Cytochrome P450 2D6 (Homo sapiens, UniProt P10635);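 also: CYP2D6 member of a cytochrome P450 panel assay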
Sequence (P10635 whole entry): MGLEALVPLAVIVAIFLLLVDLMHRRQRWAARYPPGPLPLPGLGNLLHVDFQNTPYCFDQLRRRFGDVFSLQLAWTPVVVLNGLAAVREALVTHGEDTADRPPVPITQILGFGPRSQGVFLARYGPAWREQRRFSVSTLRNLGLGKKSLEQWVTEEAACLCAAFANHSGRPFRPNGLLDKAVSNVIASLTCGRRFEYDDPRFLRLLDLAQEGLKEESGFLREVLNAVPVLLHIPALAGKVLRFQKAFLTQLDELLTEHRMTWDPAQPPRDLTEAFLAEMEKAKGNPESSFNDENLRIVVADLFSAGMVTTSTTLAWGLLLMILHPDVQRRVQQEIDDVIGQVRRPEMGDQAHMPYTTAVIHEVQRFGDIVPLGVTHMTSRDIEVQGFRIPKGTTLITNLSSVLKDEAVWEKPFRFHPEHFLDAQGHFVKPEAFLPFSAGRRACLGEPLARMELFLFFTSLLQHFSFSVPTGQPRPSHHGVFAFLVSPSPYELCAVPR
Test: not given
Details: not given

SMILES	AC50
COCCNc1cc(-c2ccccc2CN(C)C)ncn1	31.6 µM (inconclusive)
Cc1ccc(C(=O)NCCNc2ccc(Cl)cc2[N+](=O)[O-])o1	20 µM (inconclusive)
C=CCOc1ccccc1OC[C@H](O)CNC(C)C [OXPRENOLOL]	7.94 µM (inconclusive)

Molecular target: Cytochrome P450 3A4 (Homo sapiens, UniProt P08684);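 also: CYP3A4 tested as one member of a cytochrome P450 panel screen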
Sequence (P08684 whole entry): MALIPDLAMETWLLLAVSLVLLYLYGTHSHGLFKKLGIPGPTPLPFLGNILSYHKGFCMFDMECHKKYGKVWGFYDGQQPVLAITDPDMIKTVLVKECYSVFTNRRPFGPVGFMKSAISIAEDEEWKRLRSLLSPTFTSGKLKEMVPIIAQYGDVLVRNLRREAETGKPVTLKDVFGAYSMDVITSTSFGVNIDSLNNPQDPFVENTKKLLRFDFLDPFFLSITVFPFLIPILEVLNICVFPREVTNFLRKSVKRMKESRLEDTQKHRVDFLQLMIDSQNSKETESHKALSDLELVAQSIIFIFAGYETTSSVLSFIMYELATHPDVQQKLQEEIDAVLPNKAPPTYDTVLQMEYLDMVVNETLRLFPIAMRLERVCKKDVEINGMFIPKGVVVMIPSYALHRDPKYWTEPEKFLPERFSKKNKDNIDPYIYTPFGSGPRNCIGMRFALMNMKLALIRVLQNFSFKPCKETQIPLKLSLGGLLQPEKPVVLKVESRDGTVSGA
Test: not given
Details: not given

SMILES	AC50
Cc1ccc2c(c1)N(CCC(=O)NCC1CCCO1)C(=O)CO2 (centres undefined)	25.1 µM (inconclusive)

Molecular target: Cytochrome P450 2C9 (Homo sapiens, UniProt P11712)
Sequence (P11712 whole entry): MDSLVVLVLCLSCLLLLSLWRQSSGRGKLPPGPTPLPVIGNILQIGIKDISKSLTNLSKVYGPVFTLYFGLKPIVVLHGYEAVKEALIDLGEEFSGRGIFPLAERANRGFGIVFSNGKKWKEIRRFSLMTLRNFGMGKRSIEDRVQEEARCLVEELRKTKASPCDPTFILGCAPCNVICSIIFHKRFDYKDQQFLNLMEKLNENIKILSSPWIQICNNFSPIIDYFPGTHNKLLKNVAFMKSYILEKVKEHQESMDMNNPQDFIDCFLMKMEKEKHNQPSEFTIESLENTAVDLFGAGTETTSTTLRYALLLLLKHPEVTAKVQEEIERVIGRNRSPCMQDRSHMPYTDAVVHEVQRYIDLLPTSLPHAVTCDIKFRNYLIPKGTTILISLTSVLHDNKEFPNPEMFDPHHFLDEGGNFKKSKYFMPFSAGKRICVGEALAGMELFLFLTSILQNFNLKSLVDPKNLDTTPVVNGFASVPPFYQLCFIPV
Test: not given
Details: not given

SMILES	AC50
COc1ccccc1NC(=O)c1ccc(-n2cccn2)nc1	inconclusive
COCCNc1cc(-c2ccccc2CN(C)C)ncn1	inconclusive
Cc1cc(C(=O)CC#N)c(C)n1CC(F)(F)F	inconclusive
Nc1ccccc1Oc1ncc(C(F)(F)F)cc1Cl	inconclusive
CN(C)c1ccc(-c2nc(N(C)C)c3ccccc3n2)cc1	inconclusive
Cc1ccc2c(c1)N(CCC(=O)NCC1CCCO1)C(=O)CO2 (centres undefined)	inconclusive
C=CCOc1ccccc1OC[C@H](O)CNC(C)C [OXPRENOLOL]	inconclusive

Reference: ChEMBL document CHEMBL1201862, “PubChem BioAssay data set” (2004)
